In publication PMC11803614 (2025):

Assays:
Assay in all cases: electrochemical aptamer-based sensor, square-wave voltammetry titration (KDM)
[1] = test system: vanc-28 (DNA, aptamer) GCGAGGGTACCGCTTAAAGTGGGTCGGC; settings: PBS (ion concentrations not given), room temperature, 0% carboxylate (6-mercaptohexanol) SAM, immobilised aptamer
[2] = test system: vanc-45 (also printed vanc-48) (DNA, aptamer) CGAGGGTACCGCAATAGTACTTATTGTTCGCCTATTGTGGGTCGG; settings: PBS (ion concentrations not given), room temperature, 0% carboxylate (6-mercaptohexanol) SAM, immobilised aptamer
[3] = test system: tryptophan (DNA, aptamer) CCGGTGGTGTAGTTCCGGCGTGGGGAAGG; settings: PBS (ion concentrations not given), room temperature, 0% carboxylate SAM, immobilised aptamer, biphasic, higher affinity event
[4] = test system: procaine (DNA, aptamer) AGACAAGGAAAATCCTTCAACGAAGTGGGTCG; settings: undiluted bovine blood, room temperature and 37 °C; 0% carboxylate SAM; no Kd, upper plateau not reached

A Kd [1] of 0.6 ± 0.1 µM and a Kd [2] of 15.2 ± 0.4 µM were found for `CN[C@H](CC(C)C)C(=O)N[C@H]1C(=O)N[C@@H](CC(N)=O)C(=O)N[C@H]2C(=O)N[C@H]3C(=O)N[C@H](C(=O)N[C@H](C(=O)O)c4cc(O)cc(O)c4-c4cc3ccc4O)[C@H](O)c3ccc(c(Cl)c3)Oc3cc2cc(c3O[C@@H]2O[C@H](CO)[C@@H](O)[C@H](O)[C@H]2O[C@H]2C[C@](C)(N)[C@H](O)[C@H](C)O2)Oc2ccc(cc2Cl)[C@H]1O` in this work.

A Kd [3] of 13.0 ± 1.4 µM was found for `N[C@@H](Cc1c[nH]c2ccccc12)C(=O)O` in this work.

With `CCN(CC)CCOC(=O)c1ccc(N)cc1` the binding [4] was “yes”.
